Reference: patent US10660890B2, “Treatment of polycystic diseases with an HDAC6 inhibitor” (NATIONAL INSTITUTES OF HEALTH (NIH), U.S. DEPT. OF HEALTH …, priority 2013, dated 2020)

Tests used:
[1] = system: PCK rat; assay: PCK rat model of polycystic liver disease, cystic area and fibrosis; type: in vivo
From the text: Bar=2500 μm. FIG. 4C, quantification analysis of cystic area expressed as percentage of total parenchyma area. *p<0.05.
The PCK rat model was used because the genetic mutation in this animal is orthologous to that found in human ARPKD. These animals express many of the characteristics of human […] (Lager D J, et al., Kidney Internat 59: 126-136, 2001; Harris, Curr Opin Nephrol Hypertens 11:309-314, 2002). The animals carrying this mutation present with both kidney and liver fibrocystic disease and these animals live long enough to facilitate long-term treatment protocols (Gattone V. H., et al., Nat Med (2003) 9: 1323-1326; Tones V. E., et al., Nat Med (2004) 10:363-364; Masyuk T. V., et al., Gastroenterology (2007) 132:1104-1116, 2007. Female animals show more severe liver disease than male animals.
The efficacy of the Compound A-1 was then tested in a PCK rat, an animal model of polycystic liver disease.

[2] = system: β-catenin; assay: Immunofluorescence of β-catenin in PCK cholangiocytes; type: cell-based, rat; details: nucleus and cytoplasm (FIG. 6B)
[3] = system: PCK rat cholangiocytes; assay: Proliferation assay, PCK rat cholangiocytes (MTS / cell counting); type: cell-based; details: for reduction of proliferation of PCK cholangiocytes: day 3, MTS
From the text: For in vitro experiments, cholangiocytes were isolated from control rats, PCK rats (an animal model for […], LaRusso N F: Development and characterization of polarized primary cultures of rat intrahepatic bile duct epithelial cells, Lab Invest 1996, 74:303-313), healthy human beings and ADPKD patients (Masyuk et al. Biliary exosomes influence cholangiocyte regulatory mechanisms and proliferation through interaction with primary cilia, Am J Physiol Gastrointest Liver Physiol (2010) 299:G990-999; O'Hara et al. Cholangiocyte N-Ras protein mediates lipopolysaccharide-induced interleukin 6 secretion and proliferation, J Biol Chem (2011) 286:30352-30360; Banales et al. Up-regulation of microRNA 506 leads to decreased Cl(-)/HCO(3) (-) anion exchanger 2 expression in biliary epithelium of patients with primary biliary cirrhosis, Hepatology (2012) 56(2):687-97). Cholangiocytes were cultured in Collagen-I-coated flasks (BD Biocoat). All cell lines were incubated in NRC Media at 37° C., 5% CO2, 100% humidity. NRC Media contains Dulbecco's modified Eagle medium/F12 with the following additions: 0.01 mL/mL Minimum Essential Media (MEM) nonessential amino acids, 0.01 mL/mL lipid concentrate, 0.01 mL/mL MEM vitamin solution, 2 mmol/L L-glutamine, 0.05 mg/mL soybean trypsin inhibitor, 0.01 mL/mL insulin/transferring/selenium-S, 5% fetal bovine serum, […] bovine pituitary extract, 25 ng/mL epidermal growth factor, 393 ng/mL dexamethasone, […] 3,3-,5-triiodo-L-thyronine, 4.11 µg/mL forskolin, and 1% penicillin-streptomycin. […] The drug vehicle, DMSO, was suspended in NRC Media as a control. Cell proliferation was assessed with the CellTiter 96 AQueous One Solution (MTS; Promega) and/or counting cells using the Cellometer Auto T4 Cell Counter (Nexcelom Bioscience).

[4] = system: normal (NRC) cholangiocytes; assay: Proliferation assay, normal rat cholangiocytes (NRC); type: cell-based; details: 2, 4, and 8 μmol/L (FIG. 4A)
From the text: (§1) For in vitro experiments, cholangiocytes were isolated from control rats, PCK rats (an animal model for ARPKD; Vroman B, LaRusso N F: Development and characterization of polarized primary cultures of rat intrahepatic bile duct epithelial cells, Lab Invest 1996, 74:303-313), healthy human beings and ADPKD patients (Masyuk et al. Biliary exosomes influence cholangiocyte regulatory mechanisms and proliferation through interaction with primary cilia, Am J Physiol Gastrointest Liver Physiol (2010) 299:G990-999; O'Hara et al. Cholangiocyte N-Ras protein mediates lipopolysaccharide-induced interleukin 6 secretion and proliferation, J Biol Chem (2011) 286:30352-30360; Banales et al. Up-regulation of microRNA 506 leads to decreased Cl(−)/HCO(3) (−) anion exchanger 2 expression in biliary epithelium of patients with primary biliary cirrhosis, Hepatology (2012) 56(2):687-97).
Cholangiocytes were cultured in Collagen-I-coated flasks (BD Biocoat). […]
Control and PCK rat cholangiocytes were cultured on Collagen-I-coated flasks (BD Biocoat) using NRC Media, detached with 0.25% Trypsin-EDTA (GIBCO), transferred to Collagen-I-coated 96-well plates (10 000 cells/well) and incubated at 37° C., 5% CO2, 100% humidity. […] Cell proliferation was assessed with the CellTiter 96 AQueous One Solution (MTS; Promega) and/or counting cells using the Cellometer Auto T4 Cell Counter (Nexcelom Bioscience).

[5] = system: acetylated α-tubulin; assay: Western blot, acetylated α-tubulin in PCK cholangiocytes; type: cell-based, rat
Method: (§2) PCK cholangiocytes were treated with 20 μM Tubastatin A or 2 μM Tubacin, lysed and used for Western blotting. […] Actin was used as a loading control. FIG. 3B depicts representative images of Western blots (n=3) showing HDAC6 inhibitors increase the amount of phospho- and acetyl-β-catenin compared to untreated cells using total-β-catenin as loading control. […] (*p<0.05).
Protein isolated from cultured control rat and PCK rat cholangiocytes were analyzed. Cells were scrapped, resuspended in Phosphate Buffered Saline (PBS) with Protease Inhibitors, Sodium Orthovanadate and Phenylmethanesulfonylfluoride (PMSF), sonicated and equal amounts of sample protein were diluted in Laemmli Sample Buffer (Biorad) and mercaptoethanol. […]
(§3) For a better understanding of the mechanisms that are responsible for the inhibition of PCK cholangiocyte proliferation and cyst growth in 3D culture, cultured PCK cholangiocytes were treated with tubastatin-A and tubacin and the amount of acetylated α-tubulin and β-catenin was determined by Western blotting.

[6] = system: human ADPKD cholangiocytes; assay: 3-day proliferation assay, human ADPKD cholangiocytes; type: cell-based; details: 3-day proliferation assay (FIG. 5A)
From the text: FIG. 5A depicts a human ADPKD 3-day proliferation assay showing decreased proliferation induced by both HDAC6 specific inhibitors, tubastatin-A and tubacin.
as §1
Cholangiocytes were cultured in Collagen-I-coated flasks (BD Biocoat). All cell lines were incubated in NRC Media at 37° C., 5% CO2, 100% humidity. […]

[7] = system: β-catenin; assay: Western blot, β-catenin (total, phospho-, acetyl-) in PCK cholangiocytes; type: cell-based, rat
Method: as §2
(§4) Protein isolated from cultured control rat and PCK rat cholangiocytes were analyzed. Cells were scrapped, resuspended in Phosphate Buffered Saline (PBS) with Protease Inhibitors, Sodium Orthovanadate and Phenylmethanesulfonylfluoride (PMSF), sonicated and equal amounts of sample protein were diluted in Laemmli Sample Buffer (Biorad) and mercaptoethanol. After SDS polyacrylamide gel electrophoresis, SDS-PAGE, proteins were transferred to nitrocellulose membranes, blocked, and then incubated with the following primary antibodies: HDAC6 (Santa Cruz Biotechnology, D-11, 1:500), acetylated-α-tubulin (Sigma Aldrich, 1:2000), β-catenin (Cell Signaling Technology, (D10A8) XP® Rabbit mAb; 1:1000), Phospho-β-Catenin (Ser33/37/Thr41) (Cell Signaling Technology, 1:1000), acetyl-β-catenin (Cell Signaling Technology, 1:1000), c-myc (Santa Cruz Biotechnology, 1:500), cyclin D1 (Santa Cruz Biotechnology, 1:500), and actin (Sigma Aldrich, 1:5000). The membranes were incubated overnight at 4° C., washed and incubated for 1 hour at room temperature with horseradish perodixase-conjugated (1:5000, Invitrogen) or IRdye 680 or 800 (1:15000, Odyssey) corresponding secondary antibody. The ECL system or Odyssey Licor Scanner was used for protein detection and the Gel-Pro Analyzer 6.0 software was used for densitometry analysis.
as §3

[8] = system: biliary cysts freshly isolated from PCK rats; assay: 3D-culture cyst growth in collagen matrix; type: cell-based, rat; details: after four days
Method: Freshly isolated bile ducts from PCK rats were embedded in a rat-tail type I Collagen matrix (BD Biosciences) and grown in the presence or absence of 10 μmol/L Tubastatin A and 2 μmol/L Tubacin. Images of the growing cysts were taken every day over a period of 5 days and cyst size was measured with the software “Image J” (National Institute of Health). The circumferential areas for each cystic structure was compared to day 0 to calculate percentages of growth as previously described (see Muff et al. Development and characterization of a cholangiocyte cell line from the PCK rat, an animal model of Autosomal Recessive Polycystic Kidney Disease, Lab Invest 2006, 86:940-950; Masyuk et al. Octreotide inhibits hepatic cystogenesis in a rodent model of polycystic liver disease by reducing cholangiocyte adenosine 3′,5′-cyclic monophosphate, Gastroenterology (2007) 132:1104-1116 27; Lee et al. MicroRNA15a modulates expression of the cell-cycle regulator Cdc25A and affects hepatic cystogenesis in a rat model of polycystic kidney disease, J. Clin. Invest. (2008) 118:3714-3724 28. Gradilone et al. Activation of Trpv4 reduces the hyperproliferative phenotype of cystic cholangiocytes from an animal model of ARPKD, Gastroenterology (2010) 139:304-314 e302).

[9] = system: Male PKC-1 rats; assay: Kidney cyst volume in male PCK-1 rats, oral gavage 12 weeks; type: in vivo, rat; details: oral gavage once daily for 12 weeks; histological analysis
Method: Male PKC-1 rats (4 weeks old, n=12) were treated by oral gavage once daily with the indicated dose of compounds for 12 weeks. The animals were sacrificed and kidneys were removed and fixed in formalin. The volume of cysts in the kidneys was measured by histological analysis (see FIG. 7). As a comparison, 6 rats were sacrificed at 4 weeks to measure the starting volume of renal cysts (control).

[10] = system: c-myc; assay: Western blot, c-myc in PCK cholangiocytes; type: cell-based, rat; details: 2 μM Tubacin
Method: as §2
as §4, with “The membranes were incubated overnight at 4° C., washed and incubated for 1 hour at room temperature with horseradish perodixase-conjugated (1:5000, Invitrogen) or IRdye 680 or 800 (1:15000, Odyssey) corresponding secondary antibody. The ECL system or Odyssey Licor Scanner was used for protein detection and the Gel-Pro Analyzer 6.0 software was used for densitometry analysis.” left out

[11] = system: histone-3; assay: Western blot, histone-3 acetylation in PCK cholangiocytes; type: cell-based, rat; details: 2 μM Tubacin
Method: as §2
as §4, with “The membranes were incubated overnight at 4° C., washed and incubated for 1 hour at room temperature with horseradish perodixase-conjugated (1:5000, Invitrogen) or IRdye 680 or 800 (1:15000, Odyssey) corresponding secondary antibody. The ECL system or Odyssey Licor Scanner was used for protein detection and the Gel-Pro Analyzer 6.0 software was used for densitometry analysis.” left out

[12] = system: β-catenin mRNA; assay: RT-PCR, β-catenin mRNA in PCK cholangiocytes; type: cell-based, rat; details: 2 uM tubacin; over time
Method: as §2
RNA was isolated from control and PCK rat cholangiocytes with TRIZOL reagent (Invitrogen). cDNA was obtained using First Srand cDNA Synthesis (Invitrogen) reagents and HDAC6 primers (forward primer: 5′-TCAGCGCAGTCTTATGGATG-3′ (SEQ ID NO.: 1); reverse primer: 5′-GCGGTGGATGGAGAAATAGA-3′, SEQ ID NO.: 2) were purchased from Integrated DNA Technologies. β-catenin mRNA expression was analyzed using the TaqMan Gene Expression Assay (Assay ID Rn00584431_g1) following the manufacturer directions. The samples were normalized to 18S rRNA.

[13] = system: cyclin D1; assay: Western blot, cyclin D1 in PCK cholangiocytes; type: cell-based, rat; details: 2 μM Tubacin
Method: as §2
as §4, with “The membranes were incubated overnight at 4° C., washed and incubated for 1 hour at room temperature with horseradish perodixase-conjugated (1:5000, Invitrogen) or IRdye 680 or 800 (1:15000, Odyssey) corresponding secondary antibody. The ECL system or Odyssey Licor Scanner was used for protein detection and the Gel-Pro Analyzer 6.0 software was used for densitometry analysis.” left out

[14] = 2 μM Tubacin, total-β-catenin as loading control

## O=C(CCCCCCNC(=O)c1cnc(N(c2ccccc2)c2ccccc2)nc1)NO [Compound A-1, 2-(diphenylamino)-N-(7-(hydroxyamino)-7-oxoheptyl)pyrimidine-5-carboxamide]
[1]; p<0.001
  reduction of liver fibrosis: 30.5%
[1]; vs vehicle
  reduction of kidney cyst area: 39.0%
  reduction of liver cyst area: 28.4%
[2]
  β-catenin expression in PCK cells (fluorescence quantification): reduced β-catenin expression
[3]; 2, 4, and 8 μmol/L (FIG. 4A)
  PCK cells proliferation: inhibited by the Compound A-1 in a dose dependent manner
[4]
  proliferation of normal cells: no significant effect

## CN1CCc2c(c3ccccc3n2Cc2ccc(C(=O)NO)cc2)C1 [tubastatin A]
[5]; 20 μM Tubastatin A
  increase of acetylated α-tubulin level compared to untreated cells: 13 fold
[6]
  decrease of proliferation of cultured human ADPKD cholangiocytes: 85%
[7]; 20 μM Tubastatin A
  decrease of β-catenin level: 2.2 fold
[3]; 5 μM
  reduction of proliferation of PCK cholangiocytes: 2.5 folds
[3]; 10 μM
  reduction of proliferation of PCK cholangiocytes: 3.5 folds
[3]; 20 μM
  reduction of proliferation of PCK cholangiocytes: 4.15 folds
[8]; 10 μM
  reduction of cyst growth compared to untreated cysts: 131%

## O=C(NO)c1cnc(NC2(c3ccccc3)CCC(F)(F)CC2)nc1 [Compound C-2]
[9]
  cyst formation in vivo (volume of cysts in the kidneys): decrease cyst formation

## O=C(CCCCCCC(=O)Nc1ccc([C@H]2O[C@@H](CSc3nc(-c4ccccc4)c(-c4ccccc4)o3)C[C@@H](c3ccc(CO)cc3)O2)cc1)NO [tubacin]
[10]
  c-myc level: decreasing
[11]
  acetylation levels of histone-3: remained unaffected
[5]; 2 μM Tubacin
  increase of acetylated α-tubulin level compared to untreated cells: 2.3 fold
[6]
  decrease of proliferation of cultured human ADPKD cholangiocytes: 16%
[7]; 2 μM Tubacin
  decrease of β-catenin level: 5 fold
[7]; [14]
  amount of acetyl-β-catenin compared to untreated cells: increase
  amount of phospho-β-catenin compared to untreated cells: increase
[7]; 2 uM tubacin
  β-catenin protein expression over time: decrease in β-catenin protein expression over time
[3]; tubacin, 3 day time period (FIG. 2B)
  reduction of PCK cholangiocyte proliferation: 2.94 folds
[8]; 2 μM
  reduction of cyst growth compared to untreated cysts: 125%
[12]
  β-catenin mRNA: remained stable
[13]
  cyclin D1 level: decreasing

## O=C(CCCCCCNC(=O)c1cnc(N(c2ccccc2)c2ccccc2Cl)nc1)NO [Compound B-1, 2-((2-chlorophenyl)(phenyl)amino)-N-(7-(hydroxyamino)-7-oxoheptyl)pyrimidine-5-carboxamide]
[9]
  cyst formation in vivo (volume of cysts in the kidneys): decrease cyst formation
